Data: patent publication US11840686B2, “Modulation of prekallikrein (PKK) expression” (Ionis Pharmaceuticals, Inc., priority 2013, dated 2023)
Strand notation (5' to 3'): a small letter for the sugar, then the base; units joined by * are phosphorothioate-linked, units joined directly phosphodiester-linked; [ ] holds rarer units or linkages, { } end groups; capitals alone tell only the bases. e = 2'-O-(2-methoxyethyl) (MOE); [5mC] = 5-methylcytosine; d = 2'-deoxy (DNA)

System: human PKK mRNA
Experiment: Antisense inhibition of human PKK mRNA in HepaRG cells, 5,000 nM (Example 2)
Assay type: cell-based
In short: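 HepaRG cells, 20,000 per well, were electroporated with 5,000 nM MOE gapmer (phosphorothioate, 5-methylcytosine) and incubated about 24 hours. PKK mRNA was quantified by qRT-PCR with primer probe set RTS3454, normalized to RIBOGREEN total RNA, and expressed as percent inhibition versus untreated controls.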

[1] = human PKK mRNA, HepaRG cells, 5,000 nM antisense oligonucleotide, Table 18
[2] = Table 13, human PKK mRNA in HepaRG cells, 5-10-5 gapmers
[3] = HepaRG cells, electroporation, 5,000 nM antisense oligonucleotide, approx. 24 hours, primer probe set RTS3454, relative to untreated control cells, Table 11
[4] = Table 8, HepaRG cells, electroporation with 5,000 nM antisense oligonucleotide, approx. 24 hours, PKK mRNA by RT-PCR (RTS3454), relative to untreated control cells
[5] = Table 7, HepaRG cells, electroporation with 5,000 nM antisense oligonucleotide, approx. 24 hours, PKK mRNA by RT-PCR (RTS3454), relative to untreated control cells
[6] = HepaRG cells, electroporation with 5,000 nM antisense oligonucleotide, approximately 24 hours, PKK mRNA by RT-PCR (RTS3454), relative to untreated control cells, Table 6 experiment
[7] = HepaRG cells, 5,000 nM antisense oligonucleotide, 5-10-5 gapmers, Table 16
[8] = human PKK mRNA in HepaRG cells, 5-10-5 gapmers, Table 14
[9] = HepaRG cells, electroporation, 5,000 nM antisense oligonucleotide, approx. 24 hours, primer probe set RTS3454, relative to untreated control cells, Table 12
[10] = HepaRG cells, electroporation with 5,000 nM antisense oligonucleotide, approximately 24 hours, PKK mRNA by RT-PCR (RTS3454), relative to untreated control cells, Table 5 experiment
[11] = human PKK mRNA, HepaRG cells, 5-10-5 motif oligonucleotides targeting SEQ ID NO: 1 and 10
[12] = Table 9 experiment, HepaRG cells, 20,000 cells per well, electroporation with 5,000 nM antisense oligonucleotide, approx. 24 hours, PKK mRNA by RT-PCR (RTS3454), relative to untreated control cells
[13] = Table 10 experiment, HepaRG cells, 20,000 cells per well, electroporation with 5,000 nM antisense oligonucleotide, approx. 24 hours, PKK mRNA by RT-PCR (RTS3454), relative to untreated control cells

## 548740 (DNA eT*eG*eT*eA*d[5mC]*dT*dA*dG*dT*dT*dT*d[5mC]*d[5mC]*eT*eA*eT*eA; antisense) [compound 548740]
[1]
  % inhibition: 0%

## 548736 (DNA eT*eA*eT*e[5mC]*dA*d[5mC]*dT*dG*dT*dA*d[5mC]*dT*dA*dG*eT*eT*eT; antisense) [compound 548736]
[1]
  % inhibition: 21%

## 546837 (eT*eA*eT*eA*eA*d[5mC]*dT*d[5mC]*dT*dA*dA*d[5mC]*dA*dG*dT*eA*eT*e[5mC]*eA*e[5mC]; antisense) [compound 546837]
[2]
  % inhibition: 0%

## 546747 (e[5mC]*eT*e[5mC]*e[5mC]*e[5mC]*dA*d[5mC]*dT*dG*dA*d[5mC]*dT*dG*dA*d[5mC]*eT*eA*e[5mC]*eT*e[5mC]; antisense) [compound 546747]
[2]
  % inhibition: 64%

## 546796 (eG*eT*eA*e[5mC]*eT*d[5mC]*dA*d[5mC]*d[5mC]*dG*dG*dT*dA*d[5mC]*dT*e[5mC]*eT*eG*e[5mC]*e[5mC]; antisense) [compound 546796]
[2]
  % inhibition: 82%

## 546385 (eA*eT*eT*eG*eT*d[5mC]*d[5mC]*dT*d[5mC]*dA*dG*d[5mC]*dA*dG*d[5mC]*eT*e[5mC]*eT*eG*eA; antisense) [compound 546385]
[3]
  % inhibition: 67%

## 546299 (antisense eA*eT*eG*e[5mC]*e[5mC]*dA*d[5mC]*dT*dA*dT*dA*dG*dA*dT*dG*e[5mC]*eG*e[5mC]*e[5mC]*eA) [compound 546299]
[4]
  % inhibition: 84%

## 547399 (eG*e[5mC]*eA*eG*eG*dG*dT*dT*d[5mC]*dA*dG*dG*dT*dA*dA*eA*eG*eT*eT*e[5mC]; antisense) [compound 547399]
[5]
  % inhibition: 10%

## 546174 (antisense e[5mC]*e[5mC]*eT*eG*eT*dT*d[5mC]*dG*dA*dT*dG*dT*dA*d[5mC]*dT*eT*eT*eT*eG*eG) [compound 546174]
[6]
  % inhibition: 74%

## 548780 (antisense eT*eG*eT*e[5mC]*d[5mC]*dT*dA*dT*dA*dA*d[5mC]*dT*dA*eT*eA*eA*e[5mC]) [compound 548780]
[1]
  % inhibition: 22%

## 546994 (eG*eT*eT*e[5mC]*eA*dT*dG*dT*dG*dG*d[5mC]*dA*dA*d[5mC]*d[5mC]*eT*eG*eT*eG*eA; antisense) [compound 546994]
[7]
  % inhibition: 58%

## 546879 (eT*eT*eT*e[5mC]*e[5mC]*dT*dA*dT*dA*dA*d[5mC]*dA*dG*dT*dA*eT*e[5mC]*eA*e[5mC]*eT; antisense) [compound 546879]
[8]
  % inhibition: 42%

## 546285 (antisense eG*eT*eT*eA*e[5mC]*dA*d[5mC]*dA*dA*dT*d[5mC]*dT*d[5mC]*dA*dA*eA*eG*eA*eG*eT) [compound 546285]
[4]
  % inhibition: 76%

## 546859 (eT*eT*eT*e[5mC]*e[5mC]*dT*dA*dT*dA*dA*d[5mC]*dT*dA*dT*dA*eA*e[5mC]*eA*eG*eT; antisense) [compound 546859]
[8]
  % inhibition: 7%

## 547525 (antisense e[5mC]*e[5mC]*eT*e[5mC]*eG*d[5mC]*dA*dT*dT*dG*dT*d[5mC]*dA*dG*d[5mC]*e[5mC]*e[5mC]*e[5mC]*eT*eG) [compound 547525]
[3]
  % inhibition: 78%

## 546707 (eG*e[5mC]*eA*eA*eG*dT*d[5mC]*dA*dA*dA*dG*dA*dG*dT*dG*eT*e[5mC]*e[5mC]*eA*e[5mC]; antisense) [compound 546707]
[9]
  % inhibition: 73%

## 547744 (eT*eG*eG*eT*eG*dG*dT*dG*dG*dG*dA*dT*dT*dG*dG*eT*eG*eG*e[5mC]*eG; antisense) [compound 547744]
HepaRG cells, 5,000 nM antisense oligonucleotide, 5-10-5 gapmers, Table 17
  % inhibition: 65%

## 547280 (antisense eG*eA*eA*eA*eA*d[5mC]*dA*d[5mC]*dA*dA*dT*dT*dG*d[5mC]*dT*eT*e[5mC]*eT*eT*eG) [compound 547280]
[10]
  % inhibition: 47%

## 546211 (antisense eG*eG*e[5mC]*eA*eA*d[5mC]*d[5mC]*dA*dA*dT*dT*dT*d[5mC]*dT*dG*eA*eA*eA*eG*eG) [compound 546211]
[6]
  % inhibition: 42%

## 547659 (eA*e[5mC]*eT*eA*eT*dA*dA*d[5mC]*dA*dG*dT*dA*dT*d[5mC]*dA*e[5mC]*e[5mC]*eG*eT*eA; antisense) [compound 547659]
[11]
  % inhibition: 80%

## 547545 (antisense eA*eT*eA*e[5mC]*eT*d[5mC]*dG*d[5mC]*d[5mC]*dT*dT*dT*dG*dT*dG*eA*eT*eG*e[5mC]*eG) [compound 547545]
[9]
  % inhibition: 43%

## 546224 (antisense eT*eA*eG*eA*eA*dT*dG*dT*dA*dA*dA*dG*dA*dA*dG*eA*eG*eG*e[5mC]*eA) [compound 546224]
[5]
  % inhibition: 65%

## 547626 (antisense eA*e[5mC]*eA*eG*eT*dA*dT*d[5mC]*dA*d[5mC]*dT*dG*dT*d[5mC]*d[5mC]*eT*eA*eT*eG*eT) [compound 547626]
[11]
  % inhibition: 91%

## 547696 (antisense e[5mC]*eA*e[5mC]*eT*eG*dT*d[5mC]*d[5mC]*dT*dA*dT*dA*dA*d[5mC]*dT*eA*eT*eT*eA*e[5mC]) [compound 547696]
[7]
  % inhibition: 26%

## 546281 (eG*eT*eA*eA*e[5mC]*d[5mC]*dA*dG*dA*dG*d[5mC]*dT*d[5mC]*d[5mC]*d[5mC]*eT*eT*eG*eT*eG; antisense) [compound 546281]
[4]
  % inhibition: 85%

## 546293 (antisense eG*e[5mC]*e[5mC]*eT*e[5mC]*dT*dG*dA*dG*d[5mC]*dT*dG*dT*d[5mC]*dA*eG*e[5mC]*eT*eT*e[5mC]) [compound 546293]
[4]
  % inhibition: 64%

## 547490 (antisense eG*eT*eA*eG*eA*d[5mC]*dA*d[5mC]*d[5mC]*dA*dG*dG*dT*dT*dG*e[5mC]*eT*e[5mC]*e[5mC]*e[5mC]) [compound 547490]
[3]
  % inhibition: 55%

## 546141 (eG*eA*eA*eA*eT*dA*dA*dG*dT*dT*dG*d[5mC]*dT*dT*dG*e[5mC]*eT*eT*eG*eA; antisense) [compound 546141]
[10]
  % inhibition: 56%

## 546977 (eG*eT*e[5mC]*e[5mC]*e[5mC]*dG*dA*dA*dG*dA*dG*dT*d[5mC]*dA*dA*eG*eT*e[5mC]*e[5mC]*eA; antisense) [compound 546977]
[7]
  % inhibition: 76%

## 546391 (eG*e[5mC]*eA*eT*eT*dG*dT*d[5mC]*dA*dG*d[5mC]*d[5mC]*d[5mC]*d[5mC]*dT*eG*eG*eT*eT*eA; antisense) [compound 546391]
[3]
  % inhibition: 54%

## 547302 (antisense e[5mC]*e[5mC]*eA*eT*eG*dT*d[5mC]*dA*dT*dT*dG*dA*dT*dT*dG*eA*eA*e[5mC]*eT*eT) [compound 547302]
[10]
  % inhibition: 58%

## 547450 (antisense e[5mC]*eT*e[5mC]*eT*eT*dT*dT*dA*dT*dT*dT*dG*dT*dG*dA*eG*eA*eA*eA*eG) [compound 547450]
[12]
  % inhibition: 71%
[13]
  % inhibition: 67%

## 547570 (eA*eA*eG*e[5mC]*e[5mC]*d[5mC]*dT*dG*dT*dT*dT*dG*dG*dT*dT*eT*eT*eT*eA*eG; antisense) [compound 547570]
[2]
  % inhibition: 18%

## 547468 (antisense eG*eT*eT*eG*eG*dT*dA*dT*dA*dA*dA*dT*dT*dG*dT*eG*e[5mC]*eT*eT*eG) [compound 547468]
[12]
  % inhibition: 61%
[13]
  % inhibition: 46%

## 547527 (antisense e[5mC]*eT*e[5mC]*eA*eG*dT*dT*dG*d[5mC]*dG*dA*d[5mC]*d[5mC]*dT*d[5mC]*eG*e[5mC]*eA*eT*eT) [compound 547527]
[3]
  % inhibition: 58%

## 547506 (antisense eA*eG*eG*e[5mC]*eT*d[5mC]*dA*dG*dA*dA*dT*dT*dT*dG*dA*e[5mC]*eT*eT*eG*eA) [compound 547506]
[3]
  % inhibition: 78%

## 546908 (eT*e[5mC]*eA*e[5mC]*eT*dG*dT*dA*d[5mC]*d[5mC]*dT*dA*dT*dA*dA*e[5mC]*eT*eA*eT*eA; antisense) [compound 546908]
[11]
  % inhibition: 77%

## 547345 (antisense eA*eG*eA*e[5mC]*eA*d[5mC]*dA*dT*dT*dA*dA*dA*dA*dT*dT*eG*eA*e[5mC]*eT*e[5mC]) [compound 547345]
[6]
  % inhibition: 80%

## 548754 (antisense eA*eT*e[5mC]*eA*d[5mC]*dT*dG*dT*dA*d[5mC]*dT*dA*dG*dT*eT*eT*e[5mC]*e[5mC]) [compound 548754]
[1]
  % inhibition: 77%

## 548706 (DNA e[5mC]*eT*eA*dG*dT*dT*dT*d[5mC]*d[5mC]*dT*dA*dT*dA*eA*e[5mC]*eT; antisense) [compound 548706]
HepaRG cells, 5,000 nM antisense oligonucleotide, human PKK mRNA, Table 18
  % inhibition: 0%

## 547428 (eT*e[5mC]*eA*eA*eA*dG*dA*dG*dT*dA*dA*d[5mC]*d[5mC]*dA*dG*eA*eG*e[5mC]*eT*e[5mC]; antisense) [compound 547428]
[4]
  % inhibition: 78%

## 546954 (e[5mC]*eT*eG*e[5mC]*eT*dG*dA*dT*dT*dG*dT*dG*dT*d[5mC]*dT*eG*eG*e[5mC]*eT*e[5mC]; antisense) [compound 546954]
[7]
  % inhibition: 71%
